What follows are compounds tested against T1, recombinant human 5-HT5A receptor (Homo sapiens, UniProt P47898) (assay: [3H]LSD radioligand binding assay). Conditions: [3H]LSD approx. 1 nM; membranes from HEK-EBNA cells transiently expressing 5-HT5A; Ki from IC50 by Cheng-Prussoff.
T1 construct: expressed in transfected cells; host or cells: Human Embryonic Kidney-EBNA (HEK-EBNA) cells, transient cDNA expression; membranes
Method: A [^3H]LSD radioligand binding assay was used to determine the affinity of the compounds for the recombinant human 5-HT5A receptor, in membranes from transiently (cDNA) expressed 5-HT5A receptors in Human Embryonic Kidney-EBNA (HEK-EBNA) cells. Assay buffer consisted of Tris (50 mM) buffer containing 1 mM EGTA, 10 mM MgCl2 (pH 7.4) and 10 μM pargyline. The binding assay was carried out in 96-well-plates in the presence of [^3H]LSD (approximately 1 nM), approximately 2 μg/well of membrane protein, and 0.5 mg of Ysi-poly-l-lysine SPA beads in a final volume of 200 μl of buffer. Non-specific binding was defined using methiothepin 2 μM. Compounds were tested at 10 concentrations. All assays were conducted in duplicate and repeated at least two times. Assay plates were incubated for 120 min at room temperature before centrifugation. Bound ligand was determined using a Packard Topcount scintillation counter. IC50 values were calculated using a non-linear curve fitting program and Ki values calculated using the Cheng-Prussoff equation.

T1 sequence (P47898 whole entry): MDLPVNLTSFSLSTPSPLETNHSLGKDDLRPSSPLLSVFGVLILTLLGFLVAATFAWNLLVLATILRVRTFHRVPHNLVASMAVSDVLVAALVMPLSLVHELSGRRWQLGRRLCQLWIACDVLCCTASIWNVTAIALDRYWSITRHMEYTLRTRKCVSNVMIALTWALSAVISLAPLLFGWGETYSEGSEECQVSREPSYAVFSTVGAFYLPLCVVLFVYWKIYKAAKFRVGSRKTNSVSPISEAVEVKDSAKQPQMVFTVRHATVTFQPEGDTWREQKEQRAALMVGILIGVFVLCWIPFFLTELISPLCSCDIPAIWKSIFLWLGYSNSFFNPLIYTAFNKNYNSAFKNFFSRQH

Ki | SMILES
17.4 nM | Cc1cc2cccc(Nc3ccc4c(NCc5cnc[nH]5)cccc4n3)c2o1 [Example 131, N5-(3H-Imidazol-4-ylmethyl)-N2-(2-methyl-benzofuran-7-yl)-quinoline-2,5-diamine]
5.66 nM | c1cc(CNc2ccc3c(NCc4cccc5[nH]ccc45)cccc3n2)c2c(c1)OCCO2 [Example 118, N2-(2,3-Dihydro-benzo[1,4]dioxin-5-ylmethyl)-N5-(1H-indol-4-ylmethyl)-quinoline-2,5-diamine]
15.7 nM | Cc1ccc(CNc2ccc3c(NCc4c[nH]cn4)cccc3n2)o1 [Example 87, N5-(1H-Imidazol-4-ylmethyl)-N2-(5-methyl-furan-2-ylmethyl)-quinoline-2,5-diamine]
8.45 nM | Cc1ccc(CNc2ccc3c(Nc4ccc(F)c5[nH]ccc45)cccc3n2)o1 [Example 119, N5-(7-Fluoro-1H-indol-4-yl)-N2-(5-methyl-furan-2-ylmethyl)-quinoline-2,5-diamine]
10.1 nM | Cc1cc2cccc(Nc3ccc4c(NCc5cccc6[nH]ccc56)cccc4n3)c2o1 [Example 111, N5-(1H-Indol-4-ylmethyl)-N2-(2-methyl-benzofuran-7-yl)-quinoline-2,5-diamine]
21.7 nM | CC1Cc2cccc(Nc3ccc4c(NS(=O)(=O)c5cc(F)cc(F)c5)cccc4n3)c2O1 (racemic) [Example 134, rac-3,5-Difluoro-N-[2-(2-methyl-2,3-dihydro-benzofuran-7-ylamino)-quinolin-5-yl]-benzenesulfonamide]
16.6 nM | c1cc(Nc2ccc3c(NCc4cccc5[nH]ccc45)cccc3n2)cc(C2CC2)c1 [Example 164, N2-(3-Cyclopropyl-phenyl)-N5-(1H-indol-4-ylmethyl)-quinoline-2,5-diamine]
17 nM | Cc1ccc(CNc2ccc3c(NCc4cccc(S(N)(=O)=O)c4)cccc3n2)o1 [Example 35, 3-({2-[(5-Methyl-furan-2-ylmethyl)-amino]-quinolin-5-ylamino}-methyl)-benzenesulfonamide]
6.29 nM | Cc1cc2cccc(Nc3ccc4c(NCc5ccc6[nH]cnc6c5)cccc4n3)c2o1 [Example 124, N5-(1H-Benzoimidazol-5-ylmethyl)-N2-(2-methyl-benzofuran-7-yl)-quinoline-2,5-diamine]
19.4 nM | COc1ccccc1CNc1ccc2c(NCc3[nH]cnc3C)cccc2n1 [Example 96, N2-(2-Methoxy-benzyl)-N5-(5-methyl-3H-imidazol-4-ylmethyl)-quinoline-2,5-diamine]
8.65 nM | COc1ccccc1CNc1ccc2c(NCc3cccnc3)cccc2n1 [Example 1, N2-(2-Methoxy-benzyl)-N5-pyridin-3-ylmethyl-quinoline-2,5-diamine]
16.7 nM | Cc1ccc(CNc2ccc3c(NS(=O)(=O)c4cc(F)cc(F)c4)cccc3n2)s1 [Example 85, 3,5-Difluoro-N-{2-[(5-methyl-thiophen-2-ylmethyl)-amino]-quinolin-5-yl}-benzenesulfonamide]
3.33 nM | COc1ccccc1CNc1ccc2c(NCc3ccc4nc[nH]c4c3)cccc2n1 [Example 114, N5-(3H-Benzoimidazol-5-ylmethyl)-N2-(2-methoxy-benzyl)-quinoline-2,5-diamine]
49.5 nM | Cc1ccc(CNc2ccc3c(CNc4ccccn4)cccc3n2)o1 [Example 37, (5-Methyl-furan-2-ylmethyl)-[5-(pyridin-2-ylaminomethyl)-quinolin-2-yl]-amine]
31 nM | COc1ccccc1CNc1ccc2c(NCc3cnc(C)[nH]3)cccc2n1 [Example 97, N2-(2-Methoxy-benzyl)-N5-(2-methyl-3H-imidazol-4-ylmethyl)-quinoline-2,5-diamine]
32.4 nM | FC(F)(F)Oc1ccccc1CNc1ccc2c(NCc3ccc4[nH]cnc4c3)cccc2n1 [Example 117, N5-(1H-Benzoimidazol-5-ylmethyl)-N2-(2-trifluoromethoxy-benzyl)-quinoline-2,5-diamine]
52.9 nM | Cc1nc(CNc2cccc3nc(NCc4ccc(C)o4)ccc23)c[nH]1 [Example 90, N2-(5-Methyl-furan-2-ylmethyl)-N5-(2-methyl-1H-imidazol-4-ylmethyl)-quinoline-2,5-diamine]
34.1 nM | Cc1ccc(CNc2ccc3c(SCc4ccccc4)cccc3n2)o1 [Example 46, (5-Benzylsulfanyl-quinolin-2-yl)-(5-methyl-furan-2-ylmethyl)-amine]

Ki | SMILES
11.1 nM | Cc1ccc(CNc2ccc3c(NCc4cccnc4)cccc3n2)o1 [Example 15, N2-(5-Methyl-furan-2-ylmethyl)-N5-pyridin-3-ylmethyl-quinoline-2,5-diamine]
51.3 nM | Cc1ccc(CNc2ccc3c(NS(=O)(=O)Nc4ccccc4)cccc3n2)o1 [Example 145, N-(2-{[(5-methyl-2-furyl)methyl]amino}quinolin-5-yl)-N′-phenylsulfamide]
28.7 nM | Cc1ccc(CNc2ccc3c(NS(=O)(=O)c4ccccc4)cccc3n2)o1 [Example 39, N-{2-[(5-Methyl-furan-2-ylmethyl)-amino]-quinolin-5-yl}-benzenesulfonamide]
12.5 nM | Cc1ccc(CNc2ccc3c(NS(=O)(=O)c4ccc(F)cc4)cccc3n2)o1 [Example 42, N-{2-[(5-Methyl-furan-2-ylmethyl)-amino]-quinolin-5-yl}-4-fluorobenzenesulfonamide]
10.7 nM | Cc1ccc(CNc2ccc3c(Nc4cccc5[nH]ccc45)cccc3n2)o1 [Example 94, N5-(1H-Indol-4-yl)-N2-(5-methyl-furan-2-ylmethyl)-quinoline-2,5-diamine]
15.4 nM | CC1(C)Cc2cccc(Nc3ccc4c(NC5CCS(=O)(=O)c6ccccc65)cccc4n3)c2O1 (racemic) [Example 144, rac-N2-(2,2-Dimethyl-2,3-dihydro-benzofuran-7-yl)-N5-(1,1-dioxo-1l6-thiochroman-4-yl)-quinoline-2,5-diamine]
15.3 nM | COc1ccccc1CNc1cccc2nc(NCc3ccc(C)o3)ccc12 [Example 13, N5-(2-Methoxy-benzyl)-N2-(5-methyl-furan-2-ylmethyl)-quinoline-2,5-diamine]
44.7 nM | Cc1ccc(CNc2ccc3c(CCc4ccccn4)cccc3n2)o1 [Example 54, (5-Methyl-furan-2-ylmethyl)-[5-(2-pyridin-2-yl-ethyl)-quinolin-2-yl]-amine]
9.92 nM | CC1(C)Cc2cccc(Nc3ccc4c(NCc5cccnc5)cccc4n3)c2O1 [Example 163, N2-(2,2-Dimethyl-2,3-dihydro-benzofuran-7-yl)-N5-pyridin-3-ylmethyl-quinoline-2,5-diamine]
18.2 nM | Cc1ccc(CNc2ccc3c(NC4CCS(=O)(=O)c5ccccc54)cccc3n2)o1 (racemic) [Example 143, rac-5-(1,1-Dioxo-1l6-thiochroman-4-yl)-N2-(5-methyl-furan-2-ylmethyl)-quinoline-2,5-diamine]
45.1 nM | CC1(C)Cc2cccc(Nc3ccc4c(NS(=O)(=O)Nc5ccc(F)cc5)cccc4n3)c2O1 [Example 156, N-{2-[(2,2-dimethyl-2,3-dihydro-1-benzofuran-7-yl)amino]quinolin-5-yl}-N′-(4-fluorophenyl)sulfamide]
49.4 nM | COCCOc1cccc(CNc2cccc3nc(NCc4ccc(C)o4)ccc23)c1 [Example 28, N5-[3-(2-Methoxy-ethoxy)-benzyl]-N2-(5-methyl-furan-2-ylmethyl)-quinoline-2,5-diamine]
31.4 nM | Cc1ccc(CNc2ccc3c(Nc4ccc(Cl)nc4)cccc3n2)o1 [Example 57, N5-(6-Chloro-pyridin-3-yl)-N2-(5-methyl-furan-2-ylmethyl)-quinoline-2,5-diamine]
7.61 nM | Cc1ccc(CNc2ccc3c(NS(=O)(=O)c4ccc(Cl)s4)cccc3n2)o1 [Example 58, 5-Chloro-thiophene-2-sulfonic acid {2-[(5-methyl-furan-2-ylmethyl)-amino]-quinolin-5-yl}-amide]
37.1 nM | Cc1ccc(CNc2ccc3c(NC4CCOc5ccccc54)cccc3n2)o1 (racemic) [Example 142, rac-N5-Chroman-4-yl-N2-(5-methyl-furan-2-ylmethyl)-quinoline-2,5-diamine]
35.5 nM | CC(C)(C)c1cccc(Nc2ccc3c(NS(=O)(=O)c4cc(F)cc(F)c4)cccc3n2)c1 [Example 161, N-[2-(3-tert-Butyl-phenylamino)-quinolin-5-yl]-3,5-difluoro-benzenesulfonamide]
49.6 nM | O=S(=O)(Nc1cccc2nc(NCc3ccccc3OC(F)(F)F)ccc12)c1ccc(F)cc1 [Example 108, 4-Fluoro-N-[2-(2-trifluoromethoxy-benzylamino)-quinolin-5-yl]-benzenesulfonamide]
19.9 nM | Cc1ccc(CNc2ccc3c(NS(=O)(=O)c4ccc(Cl)nc4)cccc3n2)o1 [Example 59, 6-Chloro-pyridine-3-sulfonic acid {2-[(5-methyl-furan-2-ylmethyl)-amino]-quinolin-5-yl}-amide]

SMILES | Ki
COc1ccccc1CNc1ccc2c(OCC[S+]([O-])c3ccccc3)cccc2n1 (centres unmarked) [Example 83, [5-(2-Benzenesulfinyl-ethoxy)-quinolin-2-yl]-(2-methoxy-benzyl)-amine] | 95.6 nM
Cc1ccc(CNc2ccc3c(N[C@H]4CCS(=O)(=O)c5ccccc54)cccc3n2)o1 [Example 152, (R)— and (S)—N5-((S)-1,1-Dioxo-1l6-thiochroman-4-yl)-N2-(5-methyl-furan-2-ylmethyl)-quinoline-2,5-diamine] | 14.7 nM
